What was measured:
H/R-induced H9c2 cells = test: Impact of survival pathway inhibitors on AP1-induced cardio-protection (MVS assay); details: with 200 μg/mL AP1; mifepristone 100 μM, tamoxifen 100 μM, L-NAME 10 μM, LY294002 40 μM, Akt inhibitor IV 10 μM, U0126 40 μM (FIG. 11)
Description: H9c2 cells were pre-cultured in the presence or absence of survival pathway inhibitors, including mifepristone (MP, 100 μM), tamoxifen (TX, 100 μM), L-NAME (LM, 10 μmol/L), LY294002 (LY, 40 μM), Akt inhibitor IV (IV, 10 μM), U0126 (40 μM) with or without 200 μg/mL AP1 for 1 h, and then exposed further to H/R injury. The normal group (NOR) was always maintained in normoxic condition. Cell death was assessed by MVS assay. All measurements were repeated in six wells, the results are the average of three independent experiments. All values are expressed as mean±SD. ^^^P<0.001 vs. NOR, ***P<0.001 vs. H/R, ^##P<0.01 vs. AP1 under H/R, ^###P<0.001 vs. AP1 under H/R.
To examine the effectiveness of RSE and AP1 on H9c2 cells under hypoxia/reoxygenation conditions, the cells were cultured under normoxic conditions (95% air/5% CO2) overnight; then the cells were washed twice with Krebs-Ringer Bicarbonate buffer (composition in mM: NaCl 115, KCl 4.7, CaCl2 2.5, KH2PO4 1.2, MgSO4 1.2, NaHCO3 24, HEPES 10; pH 7.4) balanced with N2 at 4° C. for overnight. Aliquots (100 μL) of KRB supplemented with 0.01% (w/v) BSA were added to the cells immediately prior to hypoxia. To create a hypoxia condition, a hypoxic chamber (Stem Cell Technologies, USA) was used to produce an in vitro hypoxia challenge (Chiu, P. Y. et al., Molecular and cellular biochemistry 350, 237-250, 2011). In essence, the cells were placed in the sealed chamber and the chamber was flushed with pure N2 for 5 min at a flow rate of 20 mL/min, then, all sealable connectors were closed. After that, the chamber was transferred to an incubator and the cells in the chamber were subjected to 3 h incubation at 37° C. to induced hypoxia. Reoxygenation was initiated by opening the chamber and then replacing the KRB with fresh DMEM medium, the cells were then cultured in an incubator under normoxic conditions (95% air/5% CO2) at 37° C. for another 4 h.
The cells were seeded at the density of 8×10^4 cells/well in a 96-well plate. […] The control normal group was always maintained in normal DMEM and put in the incubator under normoxic atmosphere (95% air/5% CO2). For pharmaceutical blockages, the cells were treated with mifepristone (an inhibitor of GR, 100 μM), tamoxifen (an inhibitor of ER, 100 μM), L-NAME (an inhibitor of NOS, 10 μM), LY294002 (an inhibitor of PI3K, 40 μM), Akt inhibitor IV (an inhibitor of Akt protein kinase, 10 μM), U0126 (an inhibitor of Erk1/2, 40 μM) right before the pretreatment of AP1 (200 μg/mL).
The cell viability was evaluated by MVS assay (Sathishkumar, K. et al., Free Radicals and Antioxidant Protocols, 51-61, 2010). Briefly, at the end of the cell culture, the cells were overlaid with 100 μL of 2×mitochondrial viability stain in each well containing 100 μL of medium and then incubated under normoxic condition (95% air/5% CO2) for 4 h in the dark. The fluorescent intensity was measured at excitation 550 nm and emission 590 nm by a TECAN Infinite M200 micro plate reader (Tecan, Durham, USA).

H9c2 cells [1] = test: Flow cytometric analysis of cardiomyocyte apoptosis (Annexin V/PI); assay type: cell-based, rat; details: 100 μM, H/R, H/R group 46.0%
Source text: The normal group (Normal) was always maintained in normoxic condition. The cells were then stained with Annexin V-FITC and PI for apoptosis analysis by flow cytometry. Cells in the lower-left quadrant (Q3), unstained for both Annexin V-FITC and PI, are defined as viable cells. Cells in the lower-right quadrant (Q4), stained for Annexin V-FITC but negative for PI, are defined as early-medium apoptotic cells. Cells in the upper-right quadrant (Q2), positive for both Annexin V-FITC and PI, are defined as late apoptotic and necrotic populations. […] The percentage of apoptotic cells measured using the Annexin-V/PI kit for flow cytometry as manufacturer's instruction. […] Cells were re-suspended in 1× binding buffer containing propidium iodide (PI) and FITC-labelled Annexin V and incubated for 15 min at 37° C. in the dark, and analyzed with flow cytometry (FACS Vantage-BD Sciences, USA). The data was analyzed using Flow J software for determining the percent of apoptotic cells.

H9c2 cells [2] = test: Cell morphology in the H/R model; assay type: cell-based, rat; details: 100 μM, pretreatment, H/R (FIG. 8E)
Source text: FIG. 8A through 8E show the cell morphology of H9c2 cell pretreated with the carbohydrate composition AP1 in the H/R model. […] All photos (magnification power 200×) were taken after reoxygenation.
The medium was changed every two days, and the confluent cells were passaged by trypsinization weekly. The cells passaged for three to four times were used for experiments described as below.

[3] = tested on: NO in culture medium of H9c2 cells; test: Nitric oxide (NO) production, Griess reaction; assay type: cell-based, rat; details: L-NAME 10 μmol/L, H/R (FIG. 12)
Description: FIG. 12 illustrates the effect of carbohydrate composition AP1 on NO production. […] The normal group (Normal) was always maintained in normoxic condition. The changes of NO levels in culture medium of H9c2 cells following H/R injury were determined by Griess reagent.
The concentration of NO in the culture medium was determined by the Griess reaction with minor changes (Chen, X. P. et al., Journal of Neuroinflammation 9, 2012). At the end of the cell culture, 40 μL cell culture fluid, 10 μL NADPH, and 40 μL basal solution (0.03 M PBS; 1.25 mM glucose-6-phosphate; 400 U/L glucose-6-phosphate dehydrogenase; 200 U/L nitrate reeducates) was incubated in a 96 well microtiter plate for 45 min at room temperature. Next, 50 μL Griess reagent was added and the solution incubated for 20 min in the dark at room temperature. Finally, the absorbance of the samples was measured at 540 nm. Concentrations of NO in the sample were calibrated with a reference standard of sodium nitrite (NaNO2) supplied with the kit and the levels of NO were expressed as μM.

SMILES | effect of inhibitor on protective effects of AP1 on H/R-induced cell death (H/R-induced H9c2 cells) | other results
CC[n+]1c(/C=C/N(C)c2ccccc2)n(-c2ccccc2)c2ccc(-c3nc4ccccc4s3)cc21.[I-] [Akt inhibitor IV] | abolished the protective effects of AP1 | 
CC1=NS(=O)(=O)c2cc(Cl)ccc2N1 [DZ, diazoxide] |  | apoptosis (apoptotic cell accumulation) (H9c2 cells [1]): 22.2±3.8%; protection in H/R induced cell death (H9c2 cells [2]): significant protection
COC(=O)[C@@H](N)CCCNC(=N)N[N+](=O)[O-] [L-NAME] | abolished the protective effects of AP1 | NO production [3]: significantly abolished
N#CC(=C(/N)Sc1ccccc1N)/C(C#N)=C(\N)Sc1ccccc1N [U0126] | abolished the protective effects of AP1 | 
CC#C[C@]1(O)CC[C@H]2[C@@H]3CCC4=CC(=O)CCC4=C3[C@@H](c3ccc(N(C)C)cc3)C[C@@]21C [mifepristone] | abolished the protective effects of AP1 | 
CC/C(=C(\c1ccccc1)c1ccc(OCCN(C)C)cc1)c1ccccc1 [tamoxifen] | abolished the protective effects of AP1 | 
